This experiment concerns leukotriene B4 (LTB4) formation in human granulocytes. The experiment can be described thus: inhibitory action on leukotriene B4 (LTB4) formation induced by the calcium ionophor A 23-187 in human granulocytes. Type of experiment: cell-based. The settings on record: 10 min, 10^7 cells per ml, 10 minutes at 37° C. with compound, then 10 minutes with A 23 187 (final concentration 1 μm), HPLC, 280 nm, 2 experiments per concentration, read-out: concentration which led to a 50% inhibition (IC50) of LTB4 formation. On the procedure: To investigate the pharmacological properties of the substances according to the invention, their inhibitory action on leukotriene B4 (LTB4) formation induced by the calcium ionophor A 23-187 was measured. For this, human granulocytes were washed, the cell count was adjusted to 10^7 cells per ml and the cells were incubated for 10 minutes at 37° C. with the compounds according to the invention, such as, for example, 1-(5-(2-quinolinylmethoxy)-2-thienyl)-1-hexanone (compound according to Example 3) or alpha-pentyl-5-(2-quinolinylmethoxy)-2-thiophenemethanol (compound according to Example 5), which had been dissolved to 10^-2 M in dimethylsulfoxide and diluted to the desired concentration with physiological NaCl. The cells were then incubated for a further 10 minutes, after addition of A 23 187 (final concentration 1 μm). The reaction was stopped by addition of glacial acetic acid. The mixture was centrifuged, the supernatant was pipetted off and prostaglandin B2 was added as an internal standard.
The lipid fraction was resolved via HPLC, LTB4 and its 20--OH-- and 20--COOH-metabolites being determined photometrically at 280 nm.
2 experiments were carried out for each concentration value of the substances according to the invention and the concentration which led to a 50% inhibition (IC50) of LTB4 formation was determined for each substance. […]

`CCCCCC(=O)c1ccc(OCc2ccc3ccccc3n2)s1` [Example 3, 1-[5-(2-Quinolinylmethoxy)-2-thienyl]-1-hexanone]: the IC50 stood at 200 nM.

For the molecule `CCCCCC(O)c1ccc(OCc2ccc3ccccc3n2)s1` (stereo not drawn) [Example 5, α-Pentyl-5-(2-quinolinylmethoxy)-2-thiophenemethanol], the IC50 is 1000 nM.

The values are drawn from patent publication US4778803A, “Nitrogen-arylmethoxy-thiophene derivatives and acid addition salts thereof, and pharmaceutical preparations containing these compounds” (Chemie Linz Aktiengesellschaft, priority 1986, dated 1988).
